Laboratory results published in patent publication US10987349B2, “Antitumor agent and bromodomain inhibitor” (FUJIFILM Corporation, priority 2016, dated 2021).

Experiments:
[1] = tested on: human acute myeloid leukemia cell line MV4-11; experiment: Cell growth test (Cell Titer Glo) MV4-11; assay type: cell-based; details: 3 to 5 days
Text: (§1) The human undifferentiated thymoma cell line Ty-82 (JCRB), the human acute myeloid leukemia cell lines MV4-11 (ATCC), MOLM-13 (ATCC) and RS4-11 (ATCC), the human lymphoma cell line Raji (JCRB), the human cervical epidermoid carcinoma cell line Hela (JCRB), the human lung adenocarcinoma cell line A549 (ATCC), the human colon cancer cell lines DLD1 (DS Pharma) and HCT116 (DS Pharma), and the human pancreatic cancer cell line MIAPACA-2 (ATCC) were used to carry out a cell growth test.
(§2) Ty-82, MV4-11, MOLM-13, RS4-11, Raji and DLD1 were each seeded in a well plate, in which Roswell Park Memorial Institute (RPMI)-1640 medium supplemented with penicillin/streptomycin and fetal bovine serum (FBS) with a final concentration of 10% was placed. Hela was seeded in Dulbecco's Modified Eagle's medium (DMEM) supplemented with penicillin/streptomycin and FBS with a final concentration of 10%. A549 and MIAPACA-2 were each seeded in a well plate, in which Minimum Essential Medium (MEM) supplemented with penicillin/streptomycin and FBS with a final concentration of 10% was placed. HCT116 was seeded in a well plate, in which McCoy's 5A medium supplemented with penicillin/streptomycin and FBS with a final concentration of 10% was placed.
(§3) Thereafter, a medium containing a test compound serially diluted with DMSO, or DMSO, was added to each well of the plate, in which the cells had been seeded, and the obtained mixture was then cultured under conditions of 37° C. and 5% CO2 for 3 to 5 days. Cell Titer Glo reaction solution (Promega) was added to the culture, and the amount of luminescence was then measured using Envision plate reader (PerkinElmer). Since the amount of luminescence is in proportion to the concentration of adenosine triphosphate (ATP) in cells, the amount of luminescence was used as an indicator of the number of living cells. The growth inhibition percentage of the test compound in each concentration was calculated according to the following equation. Growth inhibition percentage (%)=(amount of luminescence in test compound−added well)/(amount of luminescence in DMSO−added well)×100
(§4) The growth inhibition percentage of the test compound in each concentration was plotted by performing a non-linear regression analysis [(log (inhibitor) vs. response—Variable slope (four parameters)], using Graphpad prism 5, and a 50% growth inhibitory concentration [GI50 (nmol/L)] was then calculated.

[2] = target: T1, BRD2 BD1 (Homo sapiens, UniProt P25440); experiment: Binding assay, BRD2 BD1 to acetylated histone H4 Peptide-Biotin (EPIgeneous Binding Domain Kit A); details: for inhibition at 0.3 µM: test compound at 300 nmol/L, read-out: Binding inhibition percentage BRD2 BD1
T1 construct: BRD2 BD1, BRD3 BD1 and BRD4 BD1 (Cisbio); purchased Cisbio
Protocol: (§5) BRD2 BD1, BRD3 BD1 and BRD4 BD1 (Cisbio), [Lys(Ac)5/8/12/16]-Histone H4(1-25)-GSGSK (Biotin) (hereinafter referred to as “Peptide-Biotin,” AnaSpec), and EPIgeneous (registered trademark) Binding Domain Kit A (Cisbio) were used to carry out an assay. That is to say, per well, 4 μL of BRD2 BD1, BRD3 BD1 or BRD4 BD1, which was adjusted to 20 nmol/L with Diluent buffer; 4 μL of 25 nmol/L Peptide-Biotin; 2 μL of Dilution buffer (Cisbio) containing dimethyl sulfoxide (DMSO) or a test compound that was serially diluted with DMSO; 5 μL of 2.5 nmol/L Streptavidin-d2; and 5 μL of Anti-Gst-Eu+^3+ Cryptate Conjugate 50-fold diluted with Detection Buffer were added to a 384-well plate (Corning).
(§6) The obtained mixture was left at rest at room temperature for 20 hours, and thereafter, the fluoresence intensity at 665 nm and 620 nm was measured using Envision plate reader (Perkin Elmer), so that the inhibition percentage (%) of the test compound against the binding of a bromodomain in a bromodomain-containing protein to Peptide-Biotin was calculated. Binding inhibition percentage (%)=[1−{(fluorescence intensity at 665 nm of test compound−added well)/(fluorescence intensity at 620 nm of test compound−added well)}/{(fluorescence intensity at 665 nm of DMSO−added well)/(fluorescence intensity at 665 nm of DMSO−added well)}]×100
(§7) Moreover, using Graphpad prism 5 (GraphPad software), 50% inhibitory concentration [IC50 (nmol/L)] was calculated according to a non-linear regression analysis (log (inhibitor) vs. response—Variable slope (four parameters)).
(§8) Regarding other test compounds, each compound was diluted with DMSO to a final concentration of 300 nmol/L by the same method as that described above, and the binding inhibition percentage (%) of each test compound at 300 nmol/L against the binding of bromodomain in a bromodomain-containing protein to acetylated histone was calculated.

[3] = tested on: human undifferentiated thymoma cell line Ty-82; experiment: Cell growth test (Cell Titer Glo) Ty-82; assay type: cell-based; details: TY82, 3 to 5 days
Text: as §1, §2, §3, §4

[4] = target: T2, BRD3 BD1 (Homo sapiens, UniProt Q15059); experiment: Binding assay, BRD3 BD1 to acetylated histone H4 Peptide-Biotin (EPIgeneous Binding Domain Kit A); details: for inhibition at 0.3 µM: test compound at 300 nmol/L, read-out: Binding inhibition percentage BRD3 BD1
T2 construct: BRD2 BD1, BRD3 BD1 and BRD4 BD1 (Cisbio); purchased Cisbio
Protocol: as §5, §6, §7, §8

[5] = target: T3, BRD2 BD2 (Homo sapiens, UniProt P25440); experiment: Binding assay, BRD2 BD2 to acetylated histone H4 Peptide-Biotin (EPIgeneous Binding Domain Kit B); details: for inhibition at 0.3 µM: test compound at 300 nmol/L, read-out: Binding inhibition percentage BRD2 BD2
T3 construct: BRD2 BD2, BRD3 BD2 and BRD4 BD2 (Cisbio); purchased Cisbio
Protocol: (§9) Moreover, BRD2 BD2, BRD3 BD2 and BRD4 BD2 (Cisbio), Peptide-Biotin (AnaSpec), and EPIgeneous (registered trademark) Binding Domain Kit B (Cisbio) were used to carry out an assay. That is, per well, 4 μL of BRD2 BD2, BRD3 BD2 or BRD4 BD2, which was adjusted to 20 nmol/L with Diluent buffer; 4 μL of 250 nmol/L Peptide-Biotin; 2 μL of Dilution buffer (Cisbio) containing DMSO or a test compound that was serially diluted with DMSO; 5 μL of 25 nmol/L Streptavidin-XL665; 5 μL of Anti-Gst-Eu+^3+ Cryptate Conjugate 50-fold diluted with Detection Buffer were added to a 384-well plate (Corning).
as §6, §7, §8

[6] = target: T4, BRD4 BD2 (Homo sapiens, UniProt O60885); experiment: Binding assay, BRD4 BD2 to acetylated histone H4 Peptide-Biotin (EPIgeneous Binding Domain Kit B); details: for inhibition at 0.3 µM: test compound at 300 nmol/L, read-out: Binding inhibition percentage BRD4 BD2
T4 construct: BRD2 BD2, BRD3 BD2 and BRD4 BD2 (Cisbio); purchased Cisbio
Protocol: as §9, §6, §7, §8

[7] = target: T5, BRD3 BD2 (Homo sapiens, UniProt Q15059); experiment: Binding assay, BRD3 BD2 to acetylated histone H4 Peptide-Biotin (EPIgeneous Binding Domain Kit B); details: for inhibition at 0.3 µM: test compound at 300 nmol/L, read-out: Binding inhibition percentage BRD3 BD2
T5 construct: BRD2 BD2, BRD3 BD2 and BRD4 BD2 (Cisbio); purchased Cisbio
Protocol: as §9, §6, §7, §8

[8] = target: T6, BRD4 BD1 (Homo sapiens, UniProt O60885); experiment: Binding assay, BRD4 BD1 to acetylated histone H4 Peptide-Biotin (EPIgeneous Binding Domain Kit A); details: for inhibition at 0.3 µM: test compound at 300 nmol/L, read-out: Binding inhibition percentage BRD4 BD1
T6 construct: BRD2 BD1, BRD3 BD1 and BRD4 BD1 (Cisbio); purchased Cisbio
Protocol: as §5, §6, §7, §8

[9] = tested on: human acute myeloid leukemia cell line MOLM-13; experiment: Cell growth test (Cell Titer Glo) MOLM-13; assay type: cell-based; details: 3 to 5 days
Text: as §1, §2, §3, §4

T3 sequence (P25440 344-453 limits assumed): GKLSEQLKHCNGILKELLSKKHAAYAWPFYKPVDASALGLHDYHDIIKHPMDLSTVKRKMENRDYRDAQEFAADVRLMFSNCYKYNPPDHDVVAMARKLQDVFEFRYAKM
T5 sequence (Q15059 306-415 limits assumed): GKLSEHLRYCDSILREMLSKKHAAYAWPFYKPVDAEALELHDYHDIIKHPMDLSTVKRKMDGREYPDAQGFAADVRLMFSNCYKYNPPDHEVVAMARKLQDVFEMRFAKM
T1 sequence (P25440 74-180 limits assumed): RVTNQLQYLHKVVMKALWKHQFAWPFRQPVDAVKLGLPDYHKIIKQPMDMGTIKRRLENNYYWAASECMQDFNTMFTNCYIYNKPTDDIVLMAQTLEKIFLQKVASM
T2 sequence (Q15059 34-140 limits assumed): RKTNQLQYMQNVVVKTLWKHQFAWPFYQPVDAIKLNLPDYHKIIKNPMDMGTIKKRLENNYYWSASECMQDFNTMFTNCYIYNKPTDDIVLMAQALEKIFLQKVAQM

SMILES	GI50 [1] [nM]	inhibition at 0.3 µM [2] [%]	GI50 [3] [nM]	inhibition at 0.3 µM [4] [%]	inhibition at 0.3 µM [5] [%]	inhibition at 0.3 µM [6] [%]	inhibition at 0.3 µM [7] [%]	inhibition at 0.3 µM [8] [%]	GI50 [9] [nM]	IC50 [2] [nM]	IC50 [4] [nM]	IC50 [5] [nM]	IC50 [6] [nM]	IC50 [7] [nM]	IC50 [8] [nM]
CCn1c(=O)cc(C2CCN(C)CC2)c2cc(C(=O)N3CCCc4ccccc43)ccc21 [Example 11, 6-(3,4-dihydroquinolin-1 (2H)-ylcarbonyl)-1-ethyl-4-(1-methylpiperidin-4-yl)quinolin-2(1H)-one]	22	94	23	94	79	83	83	94	44						
CCn1c(=O)cc(C2CC2)c2cc(-n3c(C)cc(=O)n3-c3ccccc3)ccc21 [Example 282b, 4-Cyclopropyl-1-ethyl-6-(5-methyl-3-oxo-2-phenyl-2,3-dihydro-1H-pyrazol-1-yl)quinolin-2(1H)-one]		71		89	88	87	92	91							
CCn1c(=O)cc(C2CC2)c2cc(-c3nc(C)[nH]c3-c3ccccc3)ccc21 [Example 283, 4-cyclopropyl-1-ethyl-6-(2-methyl-5-phenyl-1H-imidazol-4-yl)quinolin-2(1H)-one]		68		87	86	87	92	90							
CCn1c(=O)cc(C2CC2)c2cc(-c3nccnc3-c3ccccc3)ccc21 [Example 284, 4-cyclopropyl-1-ethyl-6-(3-phenylpyrazin-2-yl)quinolin-2(1H)-one]		83		93	88	89	92	93							
CCn1c(=O)cc(C2CCC(O)CC2)c2cc(C(=O)N(C)c3ccc(Cl)cc3)ccc21 (stereo not drawn) [Example 286, N-(4-chlorophenyl)-1-ethyl-4-(4-hydroxycyclohexyl)-N-methyl-2-oxo-1,2-dihydroquinoline-6-carboxamide]		91		94	89	89	93	95							
CCn1c(=O)cc(C2CCN(C(C)=O)CC2)c2cc(C(=O)N(C)c3ccc(C)cc3)ccc21 [Example 290, 4-(1-acetylpiperidin-4-yl)-1-ethyl-N-methyl-N-(4-methylphenyl)-2-oxo-1,2-dihydroquinoline-6-carboxamide]										45	15	86	22	59	6
CCn1c(=O)cc(C)c2cc(-c3cccnc3-c3ccccc3)ccc21 [Example 291, 1-ethyl-4-methyl-6-(2-phenylpyridin-3-yl)quinolin-2(1H)-one]		64		88	83	84	91	85							
CCn1c(=O)cc(C2CCN(C)CC2)c2cc(C(=O)N(C)c3ccc(C)c(F)c3)ccc21 [Example 292, 1-ethyl-N-(3-fluoro-4-methylphenyl)-N-methyl-4-(1-methylpiperidin-4-yl)-2-oxo-1,2-dihydroquinoline-6-carboxamide]		93		94	81	85	87	95							
CCn1c(=O)cc(C2CCN(C)CC2)c2cc(C(=O)N(C)c3ccc(C)c(Cl)c3)ccc21 [Example 293, N-(3-chloro-4-methylphenyl)-1-ethyl-N-methyl-4-(1-methylpiperidin-4-yl)-2-oxo-1,2-dihydroquinoline-6-carboxamide]		94		93	88	87	90	94							
CCn1c(=O)cc(C2CCN(C)CC2)c2cc(C(=O)N(C)c3ccc(C)c(C)c3)ccc21 [Example 294, N-(3,4-dimethylphenyl)-1-ethyl-N-methyl-4-(1-methylpiperidin-4-yl)-2-oxo-1,2-dihydroquinoline-6-carboxamide]		94		95	84	85	90	94							
